Data published in patent publication US20100267712A1, “ISOINDOLINE COMPOUNDS FOR THE TREATMENT OF SPINAL MUSCULAR ATROPHY AND OTHER USES” (The United States of America, as represented by the …, priority 2007, published 2010).
pEC50: −log10 of the molar value.

System: SMN2-linked luciferase-reporter gene construct
Assay: SMN Splice Reporter Assay (SMN2-linked luciferase reporter)
Format: cell-based
Conditions: for pEC50: cervical carcinoma cell lines, SMN2 splice luciferase reporter; for Fold Increase: fold-increase of luciferase over baseline reading of transformed cells without any test compound
Excerpt: As previously discussed, SMN1 is the gene deleted in SMA patients; the SMN2 gene remains intact in both SMA and normal patients. Therefore, SMN2 provides a potential means of increasing SMN production in SMA patients and is, thus, a target for developing SMA treatments. SMN2 is identical to SMN1 with the exception of a single base pair change that results in reduced expression of the gene. The reduction is based on the creation of an alternatively spliced RNA that produces an unstable protein carrying a deletion of exon 7. Both full length SMN and exon 7 deleted SMN are produced by the SMN2 gene via alternative RNA splicing, but the major product is the unstable deleted form.
Cervical carcinoma cell lines were transformed with a SMN2-linked luciferase-reporter gene construct. The reporter is designed to detect shifts in the alternative splicing of SMN2 sequences. In particular, the reporter is constructed as a fusion of the alternatively spliced sequences of the SMN2 gene and the luciferase gene. Luciferase sequences are in the correct translational reading frame only when the SMN2 sequences are spliced according to the normal SMN1 mechanism (e.g., splicing to include exon 7), which allows for translation of the stable SMN protein. Compounds were tested in the assay by administering the compound to the cell line and detecting an increase in the luciferase activity. The assay is described in greater detail in Zhang et al., Gene Ther., 8: 1532-8 (2001). Compounds were administered as described in Lunn et al, Chem. & Biol, 11: 1489-1493 (2004).
The results are reported as a fold-increase over a baseline reading of transformed cells without any test compound. The EC50 value also is reported in Table 1 for some exemplary compounds of the invention.

Compound	pEC50	Fold Increase
COc1ccc2c(c1)C(=O)N(c1ccc3ccn(CC#N)c3c1)C2 [Example 120603]	5.56	1.199
Cn1ccc2cc(N3Cc4cc(Cl)ccc4C3=O)ccc21 [Example 120778]	6.88	1.492
Cn1ccc2ccc(N3Cc4cc(Cl)ccc4C3=O)cc21 [Example 120779]	6.50	1.704
Cc1ccc2c(c1)CN(c1ccc3c(ccn3C)c1)C2=O [Example 120780]		1.344
COc1ccc2c(c1)CN(c1ccc3c(ccn3C)c1)C2=O [Example 120782]	6.74	1.49
COc1ccc2c(c1)C(=O)N(c1ccc3scnc3c1)C2 [Example 120785]	7.23	1.353
Cn1ccc2cc(N3Cc4c(Cl)cccc4C3=O)ccc21 [Example 120786]	6.17	1.376
O=C1c2cc3c(cc2CN1c1ccc2ncccc2c1)OCCO3 [Example 120787]	7.82	1.807
Cn1ccc2ccc(N3Cc4c(Cl)cccc4C3=O)cc21 [Example 120788]		1.25
COc1cc2c(cc1OC)C(=O)N(c1ccc3c(ccn3C)c1)C2 [Example 120789]	5.01	1.427
Cn1ccc2ccc(N3Cc4cccc(Cl)c4C3=O)cc21 [Example 120792]	6.62	1.642
Cn1ccc2cc(N3Cc4cccc(Cl)c4C3=O)ccc21 [Example 120793]	6.44	1.395
Cn1ccc2ccc(N3Cc4ccc(-c5ccccc5)cc4C3=O)cc21 [Example 120949]	6.43	1.816
Cn1ccc2ccc(N3Cc4ccc(Cl)cc4C3=O)cc21 [Example 120950]	6.01	1.482
COc1ccc2c(c1)CN(c1ccc3ncccc3c1)C2=O [Example 120951]	6.87	1.769
Cc1cccc2c1CN(c1ccc3c(ccn3C)c1)C2=O [Example 120952]	6.38	1.374
Cc1cccc2c1CN(c1ccc3ccn(C)c3c1)C2=O [Example 120953]	5.93	1.495
COc1cc2c(cc1OC)C(=O)N(c1ccc3ncccc3c1)C2 [Example 120954]	5.69	1.356
COc1cccc2c1CN(c1ccc3ncccc3c1)C2=O [Example 120956]	5.90	1.329
COc1ccc2c(c1)C(=O)N(c1ccc3ocnc3c1)C2 [Example 120957]		1.254
CC(=O)Nc1cccc2c1CN(c1ccc3c(ccn3C)c1)C2=O [Example 121074]		1.078
CC(=O)Nc1cccc2c1CN(c1ccc3ccn(C)c3c1)C2=O [Example 121075]		1.087
COc1ccc2c(c1)C(=O)N(c1ccc3c(ccn3C(C)=O)c1)C2 [Example 121076]	7.31	1.295

Compound	pEC50	Fold Increase
COc1ccc2c(c1)C(=O)N(c1ccc3c(c1)CC(=O)N3)C2 [Example 121077]		1.107
COc1ccc2c(c1)C(=O)N(c1cnc3[nH]ccc3c1)C2 [Example 121078]		1.246
COc1ccc2c(c1)C(=O)N(c1cnc3c(ccn3C)c1)C2 [Example 121079]	7.38	1.385
COc1ccc2c(c1)C(=O)N(c1ccc3ccn(CCN)c3c1)C2 [Example 121080]		1.163
CC(=O)Nc1cccc2c1C(=O)N(c1ccc3c(ccn3C)c1)C2 [Example 121081]	6.75	1.581
CC(=O)Nc1cccc2c1C(=O)N(c1ccc3ccn(C)c3c1)C2 [Example 121082]	6.08	1.496
COc1ccc2c(c1)C(=O)N(c1ccc3ccn(CCNC(C)=O)c3c1)C2 [Example 121083]		1.083
Cn1ccc2ccc(N3Cc4ccc(N)cc4C3=O)cc21 [Example 121256]	5.80	1.638
Cn1ccc2ccc(N3Cc4cc(N)ccc4C3=O)cc21 [Example 121257]	6.76	1.856
COc1ccc2c(c1)C(=O)N(c1ccc3ccn(C(C)=O)c3c1)C2 [Example 121260]	7.46	1.414
COc1ccc2c(c1)C(=O)N(c1ccc3ncoc3c1)C2 [Example 121262]	6.47	1.317
COc1ccc2c(c1)C(=O)N(c1ccc3c(ccn3C)n1)C2 [Example 121263]	6.79	1.39
Cc1ccc2c(c1)C(=O)N(c1ccc3ccn(C)c3c1)C2 [Example 121504]	6.37	1.742
CC(=O)Nc1ccc2c(c1)CN(c1ccc3ccn(C)c3c1)C2=O [Example 121506]	5.98	1.488
Cc1ccc2c(c1)C(=O)N(c1ccc3c(ccn3C)c1)C2 [Example 121507]	7.47	1.411
CC(=O)Nc1ccc2c(c1)CN(c1ccc3c(ccn3C)c1)C2=O [Example 121508]		1.201
COc1cccc2c1CN(c1ccc3sccc3c1)C2=O [Example 121509]	5.43	1.564
Cn1ccc2cc(N3Cc4ccc(O)cc4C3=O)ccc21 [Example 121510]	6.80	1.542
COc1ccc2c(c1)CN(c1ccc3ccsc3c1)C2=O [Example 121511]	6.95	1.808
O=C1c2cc(OC(F)F)ccc2CN1c1ccc2ccsc2c1 [Example 121512]	6.65	1.766
COc1cccc2c1CN(c1ccc3ccsc3c1)C2=O [Example 121513]	6.13	1.612
COc1ccc2c(c1)C(=O)N(c1cc3cc[nH]c3cn1)C2 [Example 121514]		1.172
COc1ccc2c(c1)C(=O)N(c1ccc3[nH]ccc3n1)C2 [Example 121515]	6.65	1.24

Compound	pEC50	Fold Increase
COc1ccc2c(c1)CN(c1ccc3sccc3c1)C2=O [Example 121643]	7.35	1.778
O=C1c2cc(OC(F)F)ccc2CN1c1ccc2sccc2c1 [Example 121644]	6.94	1.801
COc1ccc2c(c1)C(=O)N(c1ccc3nccc(O)c3c1)C2 [Example 121645]		1.093
CCCOc1ccc2c(c1)C(=O)N(c1ccc3c(ccn3C)c1)C2 [Example 121785]	7.10	1.29
COc1ccc2c(c1)C(=O)N(c1ccc3c(ccc[n+]3[O-])c1)C2 [Example 121786]	6.73	1.498
O=C1c2cc(OC(F)F)ccc2CN1c1ccc2c(ccn2C(F)F)c1 [Example 121787]		1.221
COc1ccc2c(c1)C(=O)N(c1ccc3c(ccn3C(F)F)c1)C2 [Example 121788]		1.19
Cn1ccc2cc(N3Cc4ccc(S(C)(=O)=O)cc4C3=O)ccc21 [Example 121790]	6.25	1.336
COc1ccc2c(c1)C(=O)N(c1ccc3ncncc3c1)C2 [Example 121791]	5.97	1.448
COc1ccc2c(c1)C(=O)N(c1cc3ccn(C)c3cn1)C2 [Example 121792]	7.00	1.384
CCc1ccc2c(c1)C(=O)N(c1ccc3c(ccn3C)c1)C2 [Example 121793]	7.07	1.529
COc1ccc2c(c1)C(=O)N(c1ccc3c(c1)NCCN3)C2 [Example 121921]	6.66	1.365
CCCCOc1ccc2c(c1)C(=O)N(c1ccc3c(ccn3C)c1)C2 [Example 121922]	6.65	1.301
CC(C)Oc1ccc2c(c1)C(=O)N(c1ccc3c(ccn3C)c1)C2 [Example 121923]		1.194
Cn1ccc2cc(N3Cc4ccc(F)cc4C3=O)ccc21 [Example 121925]	6.71	1.347
COc1cc2c(cc1F)CN(c1ccc3c(ccn3C)c1)C2=O [Example 121926]	6.70	1.533
CC(C)Cc1ccc2c(c1)C(=O)N(c1ccc3c(ccn3C)c1)C2 [Example 121927]	7.44	1.323
CCCCc1ccc2c(c1)C(=O)N(c1ccc3c(ccn3C)c1)C2 [Example 121928]	6.83	1.384
Cn1ccc2cc(N3Cc4ccc(OC5CCCC5)cc4C3=O)ccc21 [Example 121929]	7.08	1.316
Nc1ccc2c(c1)C(=O)N(c1ccc3ccsc3c1)C2 [Example 122036]	6.46	1.827
Cn1ccc2cc(N3Cc4ccc(C(F)(F)F)cc4C3=O)ccc21 [Example 122037]	6.06	1.406
